The series in a line: Solubility of Compound A in mediums with various pHs. It is filed as physicochemical. The settings on record: mediums with various pHs including water (Fig. 4). From the text: Thus, as shown in Fig. 5 in the results of the dissolution test of the tablets prepared by a conventional means employed for formulation of preparations, such as mixing Compound A with lactose, corn starch, etc. for granulation, adding talc, magnesium stearate, etc. and compressing same, the dissolution property is not entirely satisfactory, reflecting the properties of the compound per se.
Fig. 1 is a graph showing the results of the dissolution test of the fine granules of Reference Example 1 and Example 1 in the 1st fluid and the 2nd fluid, Fig. 2 is a graph showing the results of the dissolution test of the tablets of Reference Example 2 and Example 2 in the 1st fluid and the 2nd fluid, Fig. 3 is a graph showing the results of the dissolution test of the fine granules of Reference Example 1 and Example 3 in the 1st fluid and the 2nd fluid, Fig. 4 is a graph showing the solubilities of Compound A in mediums with various pHs, and Fig. 5 is a graph showing the results of the dissolution test of the tablets prepared by the conventional formulation methods in the 1st fluid and the 2nd fluid.

As for `O=c1cc2c(nn1-c1ccc(Cl)cc1)-c1ccccc1[S+]([O-])CC2` (stereo not shown) [Compound A, 2-(4-chlorophenyl)-5,6-dihydro-(1)benzothiepino[5,4-c]pyridazine-3(2H)-one 7-oxide], the solubility entry is on record as “slightly soluble”.

The values are drawn from patent EP0487768A1, “Pharmaceutical composition with improved dissolution property” (YOSHITOMI PHARMACEUTICAL INDUSTRIES, LTD., priority 1990, dated 1992).
